Test results as given in patent US12642794B2, “Dose regimens for use of LY3154207 in the treatment of dopaminergic CNS disorders” (Eli Lilly and Company, priority 2018, dated 2026).
Entries after “also recorded” stand apart in the source; their conditions may differ. Like-named read-outs stand apart in the source and are kept apart here.

Legend:
Format in all cases: in vivo, human
[1] = HBEC Part A pharmacokinetics, healthy subjects; details: for CLss/F / RAAUC(0-24) (accumulation ratio Day 14:Day 1) / RACmax (accumulation ratio Day 14:Day 1) / Cmax / AUC(0-t) / CL renal: geometric mean; for Cmax / AUC(0-t) / Tmax / CL renal: human, in vivo, oral; for AUC(0-t): read-out: AUC(0-24); for Tmax: read-out: tmax, median; for CL renal: read-out: CLr (renal clearance) (converted)
Description: (§1) In this randomized, double-blind, placebo-controlled, multiple ascending dose, parallel-group study, HBEC, healthy subjects (Part A) and participants with PD (Part B) received once-daily doses of LY3154207 (15, 30, 75, or 150 mg in Part A and up to 75 mg in Part B) or placebo for 14 days, as illustrated in FIG. 3.
(§2) Study outcomes included 24-hour ambulatory blood pressure monitoring (ABPM), treatment-emergent adverse events (TEAEs), and PK assessments in both healthy subjects and participants with PD, as well as Movement Disorder Society-United Parkinson's Disease Rating Scale (MDS-UPDRS) assessments to evaluate the impact of LY3154207 on motor function in participants with PD. The objective was to explore the safety, tolerability, and pharmacokinetics (PK) of multiple oral daily dosing of LY3154207 in healthy subjects (Part A) and in participants with PD (Part B).

[2] = HBEA plasma pharmacokinetics after single doses
From the text: HBEA is a single ascending dose study of a D1 receptor positive allosteric modulator LY3154207 in healthy volunteers. Study HBEA aims to determine the safety, tolerability, and peripheral and central pharmacokinetics (PK) of single ascending doses of LY3154207 in healthy subjects. Study HBEB aims to evaluate the effect of single-dose LY3154207 on sleep latency in sleep-deprived healthy male subjects as measured by a multiple sleep latency test (MSLT). HBEA was a Phase 1, 2-part, randomized, double-blind, placebo-controlled study in healthy males or females. Part A has a 3-period crossover design with 2 alternating, single-dose escalating cohorts, and subjects were randomized to LY3154207 (n=6) or placebo (n=3) in each cohort in each dosing period. Part B has a single-period, single-dose, 2-cohort design with cerebrospinal fluid (CSF) sampling, and subjects were randomized to LY3154207 (n=8) or placebo (n=4) in each cohort.
This is a phase 1, SAD, crossover design of LY3154207 in healthy subjects conducted in 2 alternating cohorts with dose escalation. Subjects are dosed at 25 mg, 75 mg, 100 mg, 150 mg and 200 mg or placebo. Safety parameters assessed include adverse events (AEs), safety laboratories, vital signs, ambulatory blood pressure monitoring (ABPM) and electrocardiogram (ECG). Subjects provide blood samples after dosing to measure plasma concentrations of LY3154207 for assessment of PK.
HBEA Part B is a study of Cerebrospinal fluid (CSF) and plasma pharmacokinetic (PK) profile following a single dose of LY3154207 in healthy volunteers. The objective of the study is to determine the CSF and plasma PK profile of LY3154207 in a single dose study m healthy volunteers. This study consisted of 2 cohorts in a single-dose, single-period, placebo-controlled, randomized, double-blind, parallel-group study. Subjects were randomized to 25 mg and 75 mg and underwent serial blood and CSF sampling at 2 hours pre-dose and 24 hours post-dose to measure concentrations of LY3154207. Twenty-four subjects enrolled and all completed the study. […] Concentrations of LY3154207 in CSF were detectable up to 8 h after a dose of 25 mg and up to 24 hours after a dose of 75 mg. At each dose about 1% of the total LY3154207 exposure in plasma was available in CSF. At 25 mg and 75 mg, central penetration of LY3154207 was confirmed by measurement of LY3154207 in CSF supporting its use according to the dosing regimens of the present invention in dopaminergic CNS disorders.

healthy subjects = assay: HBEC Part A multiple ascending dose study: TEAEs, vital signs, tolerability
Description: FIG. 3: Design of the study HBEC, a multiple ascending dose study of LY3154207, a randomized, double-blind, placebo-controlled, multiple ascending dose, parallel-group study, of healthy subjects (Part A) and participants with PD (Part B) who received once-daily doses of LY3154207 (15, 30, 75, or 150 mg in Part A and up to 75 mg in Part B) or placebo for 14 days. aEach ascending dose cohort commenced only after review of the safety data to at least Day 7 from the previous cohort. bParticipants with PD in Cohort 6 received titrated doses to determine the effect of this dosing schedule (i.e., Days 1-3:15 mg: Days 4-6:30 mg; and Days 7-14:75 mg) on cardiovascular effects. Note: All cohorts were dosed for 14 days. CRU=clinical research unit: LY=LY3154207; PBO=placebo: PD=Parkinson's disease: R=randomized.
as §1, §2

[3] = healthy subjects, LY 15 mg once daily for 14 days (N = 9)
[4] = healthy subjects, LY 30 mg once daily for 14 days (N = 9)
[5] = healthy subjects, LY 75 mg once daily for 14 days (N = 9)
[6] = healthy subjects, LY 150 mg once daily for 14 days (N = 9)
[7] = healthy subjects, primarily at the 150 mg dose

SMILES: C[C@H]1c2cccc(CCC(C)(C)O)c2C[C@H](CO)N1C(=O)Cc1c(Cl)cccc1Cl [LY3154207]
- accumulation upon repeated dosing [1]: minimal accumulation
- CLss/F ([1]; Day 14, LY 15 mg (N = 9)): 30.5 L/h
- CLss/F ([1]; Day 14, LY 30 mg (N = 9)): 24.2 L/h
- CLss/F ([1]; Day 14, LY 75 mg (N = 9)): 33.8 L/h
- CLss/F ([1]; Day 14, LY 150 mg (N = 9)): 34.5 L/h
- RAAUC(0-24) (accumulation ratio Day 14:Day 1) ([1]; LY 15 mg (N = 9)): 1.34
- RACmax (accumulation ratio Day 14:Day 1) ([1]; LY 15 mg (N = 9)): 1.18
- RAAUC(0-24) (accumulation ratio Day 14:Day 1) ([1]; LY 30 mg (N = 9)): 1.03
- RACmax (accumulation ratio Day 14:Day 1) ([1]; LY 30 mg (N = 9)): 1.12
- RAAUC(0-24) (accumulation ratio Day 14:Day 1) ([1]; LY 75 mg (N = 9)): 0.99
- RACmax (accumulation ratio Day 14:Day 1) ([1]; LY 75 mg (N = 9)): 1.13
- RAAUC(0-24) (accumulation ratio Day 14:Day 1) ([1]; LY 150 mg (N = 9)): 0.93
- RACmax (accumulation ratio Day 14:Day 1) ([1]; LY 150 mg (N = 9)): 0.92
- Cmax ([1]; Day 14, LY 15 mg (N = 9)): 66.2 ng/mL
- AUC(0-t) ([1]; Day 14, LY 15 mg (N = 9)): 492 ng·h/mL
- Tmax ([1]; Day 14, LY 15 mg (N = 9)): 2 h
- Cmax ([1]; Day 14, LY 30 mg (N = 9)): 149 ng/mL
- AUC(0-t) ([1]; Day 14, LY 30 mg (N = 9)): 1240 ng·h/mL
- CL renal ([1]; Day 14, LY 30 mg (N = 9)): 0.06 mL/min
- Tmax ([1]; Day 14, LY 30 mg (N = 9)): 2 h
- Cmax ([1]; Day 14, LY 75 mg (N = 9)): 307 ng/mL
- AUC(0-t) ([1]; Day 14, LY 75 mg (N = 9)): 2220 ng·h/mL
- CL renal ([1]; Day 14, LY 75 mg (N = 9)): 0.04 mL/min
- Tmax ([1]; Day 14, LY 75 mg (N = 9)): 2 h
- Cmax ([1]; Day 14, LY 150 mg (N = 9)): 500 ng/mL
- AUC(0-t) ([1]; Day 14, LY 150 mg (N = 9)): 4350 ng·h/mL
- CL renal ([1]; Day 14, LY 150 mg (N = 9)): 0.0567 mL/min
- Tmax ([1]; Day 14, LY 150 mg (N = 9)): 3 h
- apparent clearance (CL/F) ([2]; across doses): 19 to 25 L/h
- Tmax ([2]; both sexes, human, plasma, single doses, read-out: median tmax): 2 to 3 h
- half-life ([2]; both sexes, human, plasma, single doses, read-out: terminal half-life (t1/2) (converted)): ~12 h
- renal elimination ([2]; in vivo): negligible renal elimination
- linearity of PK ([2]; plasma, 25-200 mg): linear PK profile; also recorded: linear plasma PK
- dose proportionality of Cmax and AUC ([2]; plasma, 25 to 200 mg): proportional with dose; also recorded: increased in proportion to LY3154207 dose
- administered dose excreted in urine ([2]; single doses): 0.02%
- incidence of TEAEs following multiple dosing (healthy subjects; healthy subjects): dose-dependent increase
- severe or serious TEAEs (healthy subjects; healthy subjects): no severe or serious TEAEs
- Number of TEAEs (healthy subjects; [3]): 6
- Number of TEAEs, Mild (healthy subjects; [3]): 6
- Number of TEAEs, Moderate (healthy subjects; [3]): 0
- Subjects with ≥1 TEAE, (%) (healthy subjects; [3]): (44.4) %
- Number of TEAEs (healthy subjects; [4]): 5
- Number of TEAEs, Mild (healthy subjects; [4]): 5
- Number of TEAEs, Moderate (healthy subjects; [4]): 0
- Subjects with ≥1 TEAE, (%) (healthy subjects; [4]): (55.6) %
- Number of TEAEs (healthy subjects; [5]): 6
- Number of TEAEs, Mild (healthy subjects; [5]): 6
- Number of TEAEs, Moderate (healthy subjects; [5]): 0
- Subjects with ≥1 TEAE, (%) (healthy subjects; [5]): (33.3) %
- Number of TEAEs (healthy subjects; [6]): 35
- Number of TEAEs, Mild (healthy subjects; [6]): 35
- Number of TEAEs, Moderate (healthy subjects; [6]): 0
- Subjects with ≥1 TEAE, (%) (healthy subjects; [6]): (88.9) %
- dizziness, treatment-related AE (healthy subjects; [7]): 3 n
- insomnia, treatment-related AE (healthy subjects; [7]): 4 n
- nausea, treatment-related AE (healthy subjects; [7]): 2 n
- nervousness, treatment-related AE (healthy subjects; [7]): 3 n
- palpitations, treatment-related AE (healthy subjects; [7]): 3 n
- course of the initial increase in SBP, DBP, and pulse rate (healthy subjects; healthy subjects, repeated dosing): showed accommodation with repeated dosing
- tolerability of multiple once-daily doses (healthy subjects; up to 150 mg in healthy subjects): well tolerated
